Measurements taken from publication PMC9029089, “1,5-Disubstituted Acylated 2-Amino-4,5-dihydroimidazoles as a New Class of Retinoic Acid Receptor–Related Orphan Receptor (ROR) Inhibitors” (International Journal of Molecular Sciences, 2022).
Read-outs that look alike come from different tables or passages of the source.

How the values were obtained:
Type in all cases: cell-based
RORγ [1] = target: T1, RORγ (Mus musculus, UniProt P51450); test: Gal4-RORγ-LBD UAS-luciferase reporter assay in TRex-CHO-K1 cells (doxycycline-stimulated)
T1 construct: mRORγ (Pro-261-end); expressed in transfected cells
T1 sequence (P51450 261-516 limits assumed): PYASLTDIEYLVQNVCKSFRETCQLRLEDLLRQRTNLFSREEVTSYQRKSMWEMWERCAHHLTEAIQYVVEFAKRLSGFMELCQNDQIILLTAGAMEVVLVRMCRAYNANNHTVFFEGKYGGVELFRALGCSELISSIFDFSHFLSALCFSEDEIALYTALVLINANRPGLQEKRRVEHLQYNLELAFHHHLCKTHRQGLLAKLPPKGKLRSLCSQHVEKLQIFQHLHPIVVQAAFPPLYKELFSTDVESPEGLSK
From the text: (§1) The Gal4-DBD-ROR-LBD fusion proteins were subcloned in the pcDNA4/TO expression vector (Thermo Scientific) and transfected into TRex-CHO-K1 cells (Thermo Scientific) for tetracycline-controlled expression of the corresponding ROR proteins. Transfected cells were selected with hygromycin and Zeocin and individual clones for each of the Gal4-RORγ, Gal4-RORα, and Gal4-RORβ cell lines were isolated using a standard serial dilution protocol. Clones with the highest doxycycline-dependent stimulation of luciferase activity were selected for all functional experiments.
(§2) For screening FIU libraries, cells were resuspended in Ham’s F-12 assay medium containing 2% charcoal-treated FBS and no selection drugs. […] Cells were allowed to attach for 2 h, followed by compound treatment and stimulation with 20 ng/mL doxycycline for an additional 16–20 h. Appropriate solvent controls, negative controls with no doxycycline, and blanks with no cells were included in every plate. Prior to measuring luciferase activity, 6 µL of 0.15 mg/mL resazurin (Cayman Chemical) in PBS were added and cells were incubated for 1 h at 37 °C. Fluorescence intensity was detected at 545 nm excitation/590 nm emission using a CLARIOstar reader (BMGLabtech) as a measure of cell viability, to identify any potential cytotoxic effect of test compounds and mixtures.
(§3) Luminescence was normalized by the fluorescence intensity and the percentage of inhibition was calculated with respect to control cells stimulated with doxycycline in the presence of solvent control (0.1% DMF). All primary screens with individual compounds were performed in triplicate with a final concentration of 5 µg/mL. […] IC50 values were calculated using GraphPrism (GraphPad software).

RORβ = target: T2, RORβ (Rattus norvegicus, UniProt P45446); test: Gal4-RORβ-LBD UAS-luciferase reporter assay in TRex-CHO-K1 cells (doxycycline-stimulated)
T2 construct: rRORβ (Pro 205-end); expressed in transfected cells
T2 sequence (P45446 205-459 isoform P45446-1): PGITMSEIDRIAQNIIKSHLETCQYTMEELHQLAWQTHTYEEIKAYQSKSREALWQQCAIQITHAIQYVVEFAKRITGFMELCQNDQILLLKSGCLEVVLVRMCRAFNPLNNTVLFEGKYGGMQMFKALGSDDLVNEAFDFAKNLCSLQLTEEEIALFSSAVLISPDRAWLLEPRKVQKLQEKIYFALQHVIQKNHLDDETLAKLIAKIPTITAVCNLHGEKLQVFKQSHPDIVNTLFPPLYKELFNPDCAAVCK
From the text: To investigate the transcriptional activity of all three RORs, we generated stable cell lines expressing an UAS-driven luciferase reporter together with the corresponding Gal4-DNA binding domain fused to the ligand binding domains (LBDs) of mRORγ (Pro-261-end), hRORα (Pro-211-end), or rRORβ (Pro 205-end). The Gal4-DBD-ROR-LBD fusion proteins were subcloned in the pcDNA4/TO expression vector (Thermo Scientific) and transfected into TRex-CHO-K1 cells (Thermo Scientific) for tetracycline-controlled expression of the corresponding ROR proteins. Transfected cells were selected with hygromycin and Zeocin and individual clones for each of the Gal4-RORγ, Gal4-RORα, and Gal4-RORβ cell lines were isolated using a standard serial dilution protocol. Clones with the highest doxycycline-dependent stimulation of luciferase activity were selected for all functional experiments. All cell lines were maintained in complete Ham’s F12 medium containing 10% fetal bovine serum (FBS), 10 µg/mL blasticidine, 100 µg/mL hygromycin, and 100 µg/mL Zeocin and were used within 2 months of culture without any loss of doxycycline-dependent stimulation of luciferase activity.
For screening FIU libraries, cells were resuspended in Ham’s F-12 assay medium containing 2% charcoal-treated FBS and no selection drugs. Ten thousand cells per well were seeded in 30 µL of assay medium in 384 white plates with clear bottom (Greiner). Cells were allowed to attach for 2 h, followed by compound treatment and stimulation with 20 ng/mL doxycycline for an additional 16–20 h. Appropriate solvent controls, negative controls with no doxycycline, and blanks with no cells were included in every plate. Prior to measuring luciferase activity, 6 µL of 0.15 mg/mL resazurin (Cayman Chemical) in PBS were added and cells were incubated for 1 h at 37 °C. Fluorescence intensity was detected at 545 nm excitation/590 nm emission using a CLARIOstar reader (BMGLabtech) as a measure of cell viability, to identify any potential cytotoxic effect of test compounds and mixtures. Following the resazurin assay, the medium was removed and 20 µL of BriteLite-Plus luciferase reagent (Perking Elmer) were added; luminescence was measured in a CLARIOstar reader using a 384 aperture spoon and a 0.1 sec measuring time interval.
as §3

RORγ [2] = target: T1, RORγ; test: Gal4-RORγ-LBD UAS-luciferase reporter assay in TRex-CHO-K1 cells (doxycycline-stimulated); conditions: library 2520, RORγ cells
RORα = target: T3, RORα (Homo sapiens, UniProt P35398); test: Gal4-RORα-LBD UAS-luciferase reporter assay in TRex-CHO-K1 cells (doxycycline-stimulated)
T3 construct: hRORα (Pro-211-end); expressed in transfected cells
T3 sequence (P35398 266-523): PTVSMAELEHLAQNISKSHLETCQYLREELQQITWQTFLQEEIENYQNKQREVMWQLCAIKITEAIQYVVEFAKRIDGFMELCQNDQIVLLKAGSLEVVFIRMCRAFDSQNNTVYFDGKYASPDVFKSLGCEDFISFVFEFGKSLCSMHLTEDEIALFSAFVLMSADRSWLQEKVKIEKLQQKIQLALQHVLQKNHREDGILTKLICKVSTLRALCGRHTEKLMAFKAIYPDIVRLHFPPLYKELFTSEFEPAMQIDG
From the text: as §1, §2, §3

[3] = read-out: IC50 (μM, N=4) ROR-Gamma, library 2520
[4] = read-out: IC50 (μM, N=4) ROR-Beta, library 2520
[5] = read-out: IC50 (μM, N=4) ROR-Alpha, library 2520
[6] = individual controls of library 1295, second confirmatory dose response, Figure 2
[7] = IC50 (μM) (N=4) RORβ, individual controls of library 1295, second confirmatory dose response, Figure 2
[8] = IC50 (μM) (N=4) RORα, individual controls of library 1295, second confirmatory dose response, Figure 2
[9] = IC50 (μM) (N=4) RORγ, individual controls of library 1295, second confirmatory dose response, Figure 2
[10] = T-REx-CHO-K1, read-out: % Inhibition RORγ 5 μg/ml

CCC(C(=O)NC1=NCC(Cc2ccc3ccccc3c2)N1CCC1CC2CCC1C2)c1ccccc1 (mixture of isomers) [2520.11]
IC50 (RORγ [1]; [3]): 7.55 ± 0.5 µM | IC50 (RORβ; [4]): 7.3 ± 0.8 µM | % Inhibition at 4 μM (N=3) (RORγ [2]): 67.6% | IC50 (RORα; [5]): 10.3 ± 0.4 µM

CCC(C(=O)NC1=NCC(C(C)CC)N1CC1CCCCC1)c1ccccc1 (mixture of isomers) [2520.15]
IC50 (RORγ [1]; [3]): 4.69 ± 0.2 µM | IC50 (RORβ; [4]): 3.66 ± 0.3 µM | % Inhibition at 4 μM (N=3) (RORγ [2]): 43.6% | IC50 (RORα; [5]): 5.97 ± 0.2 µM

CCC(C(=O)NC1=NCC(Cc2ccccc2)N1CC1CCCCC1)c1ccccc1 (mixture of isomers) [2520.27]
IC50 (RORγ [1]; [3]): 4.8 ± 0.2 µM | IC50 (RORβ; [4]): 4.89 ± 0.3 µM | % Inhibition at 4 μM (N=3) (RORγ [2]): 97.7% | IC50 (RORα; [5]): 6.61 ± 0.3 µM

CC(C)C(=O)NC1=NCC(Cc2ccccc2)N1CCC(C)c1ccccc1 (mixture of isomers) [2520.28]
IC50 (RORγ [1]; [3]): 6.37 ± 0.4 µM | IC50 (RORβ; [4]): 6.17 ± 0.3 µM | % Inhibition at 4 μM (N=3) (RORγ [2]): 69.8% | IC50 (RORα; [5]): 8.48 ± 0.4 µM

COc1ccc(CC(=O)NC2=NCC(Cc3ccccc3)N2CCC(C)c2ccccc2)cc1 (mixture of isomers) [2520.34]
% Inhibition at 4 μM (N=3) (RORγ [2]): 34.4%

CCC(C(=O)NC1=NCC(Cc2ccccc2)N1CCC1CC2CCC1C2)c1ccccc1 (mixture of isomers) [2520.35]
% Inhibition at 4 μM (N=3) (RORγ [2]): -21.7%

CCOc1ccc(CC2CN=C(NC(=O)Cc3ccc(OC)cc3)N2CCC2CC3CCC2C3)cc1 (mixture of isomers) [2520.38]
% Inhibition at 4 μM (N=3) (RORγ [2]): -22.6%

CCOc1ccc(CC2CN=C(NC(=O)C(C)C)N2CCC(C)c2ccccc2)cc1 (mixture of isomers) [2520.40]
% Inhibition at 4 μM (N=3) (RORγ [2]): -8.1%

CCOc1ccc(CC2CN=C(NC(=O)C(CC)c3ccccc3)N2CCC(C)c2ccccc2)cc1 (mixture of isomers) [2520.43]
% Inhibition at 4 μM (N=3) (RORγ [2]): -5.4%

CCOc1ccc(CC2CN=C(NC(=O)C(C)C)N2CCC2CC3CCC2C3)cc1 (mixture of isomers) [2520.44]
% Inhibition at 4 μM (N=3) (RORγ [2]): -20.0%

O=C(Cc1ccccc1)NC1=NC[C@H](Cc2ccccc2)N1CCc1ccc(-c2ccccc2)cc1 [1295.248]
inhibition at 5 µg/mL (RORγ [1]; T-REx-CHO-K1, individual controls 1295.201-307, 5 μg/ml, triplicate, read-out: % Inhibition RORγ 5 μg/ml): 91.5% | selectivity towards RORγ over RORα and RORβ (RORγ [1]; from IC50 values in reporter cells): two-fold selectivity | IC50 (RORγ [1]; [6]): 5 µM | IC50 (RORβ; [7]): 12.1 µM | IC50 (RORα; [8]): 10.1 µM

O=C(Cc1ccccc1)NC1=NC[C@H](Cc2ccccc2)N1CCC1CCCCC1 [1295.261]
IC50 (RORγ [1]; [9]): 17.2 ± 1.6 µM | inhibition at 5 µg/mL (RORγ [1]; [10]): 95.9% | IC50 (RORβ; [7]): 17.1 ± 2.6 µM | IC50 (RORα; [8]): 15.3 ± 1.7 µM

O=C(Cc1ccccc1)NC1=NC[C@H](Cc2ccccc2)N1CCCC1CCCCC1 [1295.268]
inhibition at 5 µg/mL (RORγ [1]; [10]): 103% | IC50 (RORγ [1]; [6]): 6.2 ± 0.6 µM | IC50 (RORβ; [7]): 10.4 ± 0.8 µM | IC50 (RORα; [8]): 10.1 ± 0.4 µM

CC1CCC(CN2C(NC(=O)Cc3ccccc3)=NC[C@@H]2Cc2ccccc2)CC1 (stereo partly drawn) [1295.269]
IC50 (RORγ [1]; [9]): 5.8 ± 0.6 µM | inhibition at 5 µg/mL (RORγ [1]; [10]): 104% | IC50 (RORβ; [7]): 9.3 ± 0.8 µM | IC50 (RORα; [8]): 9 ± 0.3 µM
